# From patent US20100256137A1, “INDAZOLAMIDE DERIVATIVES” (MERCK PATENT GESELLSCHAFT MIT BESCHRANKTER HAFTUNG, priority 2007, published 2010)
# Target: T1, Recombinant human HSP90a (Homo sapiens, UniProt P07900)
# T1 construct: host or cells: E. coli
# Experiment: HSP90 radioligand filter binding test ([3H]17AAG competition)
# Conditions: [3H]17AAG 0.08 μM, HSP90 1.5 μg/assay, 22° C., 30 min, pH 7.0; read-out: IC50 (HSP90 inhibition)
# Procedure: In the specific case, a radioligand filter binding test is used. The radioligand used here is tritium-labelled 17-allylaminogeldanamycin, [3H]17AAG. This filter binding test allows a targeted search for inhibitors which interfere with the ATP binding site.
# HEPES filter buffer (50 mM HEPES, pH 7.0, 5 mM MgCl2, BSA 0.01%)
# Multiscreen FB (1 μm) filter plate (Millipore, MAFBNOB 50).
# The 96-well microtitre filter plates are firstly irrigated and coated with 0.1% of polyethylenimine.
# The test is carried out under the following conditions:
# Reaction temperature 22° C.
# Reaction time: 30 min., shaking at 800 rpm
# 50 mM HEPES HCl, pH 7.0, 5 mM MgCl2, 0.01% (w/v) of BSA
# At the end of the reaction, the supernatant in the filter plate is removed by suction with the aid of a vacuum manifold (Multiscreen Separation System, Millipore), and the filter is washed twice.
# The filter plates are then measured in a beta counter (Microbeta, Wallac) with scintillator (Microscint 20, Packard).
# “% of control” is determined from the “counts per minutes” values, and the IC-50 value of a compound is calculated therefrom.
row,Structure (SMILES),IC50 [µM]
1,Cc1cccc(Cc2n[nH]c3cc(O)c(C(=O)N4CCc5ccccc54)cc23)c1 [Compound A11],0.01 to 1
2,CCCc1n[nH]c2cc(O)c(C(=O)N3Cc4ccc(N5CCN(C)CC5)cc4C3)cc12 [Compound A20],0.01 to 1
3,"O=C(c1cc2c(Cc3cccc(Cl)c3)n[nH]c2cc1O)N1CCC(O)C1 (stereo not drawn) [Compound A5, 5-(3-Hydroxypyrrolidin-1-ylcarbonyl)-3-(3-chlorobenzyl)-6-hydroxy-1H-indazole]",0.01 to 1
4,"CCCCc1n[nH]c2cc(O)c(C(=O)N3Cc4ccc(Br)cc4C3)cc12 [Compound A14, 5-(5-Bromo-1,3-dihydroisoindol-2-ylcarbonyl)-3-butyl-6-hydroxy-1H-indazole]",1 to 10
5,"CC(C)CCc1n[nH]c2cc(O)c(C(=O)N3Cc4ccc(OCCN5CCCCC5)cc4C3)cc12 [Compound A39, [6-Hydroxy-3-(3-methylbutyl)-1H-indazol-5-yl]-[5-(2-piperidin-1-ylethoxy)-1,3-dihydroisoindol-2-yl]methanone]",0.01 to 1
6,Cc1cccc(Cc2n[nH]c3cc(O)c(C(=O)N4CCOCC4)cc23)c1 [Compound A10],0.01 to 1
7,"CCN(C)CCOc1ccc2c(c1)CN(C(=O)c1cc3c(CC4CCCC4)n[nH]c3cc1O)C2 [Compound A37, (3-Cyclopentylmethyl-6-hydroxy-1H-indazol-5-yl)-{5-[2-(ethylmethylamino)ethoxy]-1,3-dihydroisoindol-2-yl}methanone]",0.01 to 1
8,"O=C(c1cc2c(CC3CCCC3)n[nH]c2cc1O)N1Cc2ccccc2C1 [Compound A18, 5-(1,3-Dihydroisoindol-2-ylcarbonyl)-3-cyclopentylmethyl-6-hydroxy-1H-indazole]",0.01 to 1
9,"O=C(c1cc2c(CC3CCCC3)n[nH]c2cc1O)N1Cc2ccc(OCCN3CCCCC3)cc2C1 [Compound A40, (3-Cyclopentylmethyl-6-hydroxy-1H-indazol-5-yl)-[5-(2-piperidin-1-ylethoxy)-1,3-dihydroisoindol-2-yl]methanone]",0.01 to 1
10,"Cc1cccc(Cc2n[nH]c3cc(O)c(C(=O)N4CCCC4)cc23)c1 [Compound A16, 5-(Pyrrolidin-1-ylcarbonyl)-3-(3-methylbenzyl)-6-hydroxy-1H-indazole]",0.01 to 1
11,"CCCCc1n[nH]c2cc(O)c(C(=O)N3Cc4ccccc4C3)cc12 [Compound A4, 5-(1,3-Dihydroisoindol-2-ylcarbonyl)-3-butyl-6-hydroxy-1H-indazole]",0.01 to 1
12,"CN1CCC(Oc2ccc3c(c2)CN(C(=O)c2cc4c(CC5CCCC5)n[nH]c4cc2O)C3)CC1 [Compound A31, (3-cyclopentylmethyl-6-hydroxy-1H-indazol-5-yl)-[5-(1-methylpiperidin-4-yloxy)-1,3-dihydroisoindol-2-yl]methanone]",0.01 to 1
13,"CN(C)CCCOc1ccc2c(c1)CN(C(=O)c1cc3c(CC4CCCCC4)n[nH]c3cc1O)C2 [Compound A35, (3-Cyclohexylmethyl-6-hydroxy-1H-indazol-5-yl)-[5-(3-dimethylaminopropoxy)-1,3-dihydroisoindol-22-yl]methanone]",0.01 to 1
14,"COc1cccc(Cc2n[nH]c3cc(O)c(C(=O)N4Cc5ccccc5C4)cc23)c1 [Compound A3, 5-(1,3-Dihydroisoindol-2-ylcarbonyl)-3-(3-methoxybenzyl)-6-hydroxy-1H-indazole]",0.01 to 1
15,"CCCc1n[nH]c2cc(O)c(C(=O)N3Cc4ccccc4C3C(=O)NCC)cc12 (stereo not drawn) [Compound A48, N-Ethyl-2-(6-hydroxy-3-propyl-1H-indazole-5-carbonyl)-2,3-dihydro-1H-isoindole-1-carboxamide]",1 to 10
16,Cc1cccc(Cc2n[nH]c3cc(O)c(C(=O)N4CCc5ccccc5C4)cc23)c1 [Compound A2],0.01 to 1
17,"CC(C)CCc1n[nH]c2cc(O)c(C(=O)N3Cc4ccc(OC5CCN(C)CC5)cc4C3)cc12 [Compound A30, [6-hydroxy-3-(3-methylbutyl)-1H-indazol-5-yl]-[5-(1-methylpiperidin-4-yloxy)-1,3-dihydroisoindol-2-yl]methanone]",0.01 to 1
18,"CC(C)CCc1n[nH]c2cc(O)c(C(=O)N3Cc4ccc(OCCCN(C)C)cc4C3)cc12 [Compound A33, [5-(3-Dimethylaminopropoxy)-1,3-dihydroisoindol-2-yl]-[6-hydroxy-3-(3-methylbutyl)-1H-indazol-5-yl]methanone]",0.01 to 1
19,"CCN(C)CCOc1ccc2c(c1)CN(C(=O)c1cc3c(CCC(C)C)n[nH]c3cc1O)C2 [Compound A36, {5-[2-(Ethylmeethylamino)ethoxy]-1,3-dihydroisoindol-22-yl}-[6-hydroxy-3-(3-methylbutyl)-1H-indazol-5-yl]methanone]",0.01 to 1
20,"CCCc1n[nH]c2cc(O)c(C(=O)N3Cc4ccc(OCCN(C)C)cc4C3)cc12 [Compound A26, [5-(2-dimethylaminoethoxy)-1,3-dihydroisoindol-2-yl]-(6-hydroxy-3-propyl-1H-indazol-5-yl)methanone]",0.01 to 1
21,"O=C(c1cc2c(CC3CCCCC3)n[nH]c2cc1O)N1Cc2ccccc2C1 [Compound A50, (3-Cyclohexylmethyl-6-hydroxy-1H-indazol-5-yl)-(1,3-dihydroisoindol-2-yl)methanone]",0.01 to 1
22,"CC(C)Cc1n[nH]c2cc(O)c(C(=O)N3Cc4ccccc4C3)cc12 [Compound A49, (1,3-Dihydroisoindol-2-yl)(6-hydroxy-3-isobutyl-1H-indazol-5-yl)methanone]",0.01 to 1

# More lines, now with the values ahead:
row,IC50 [µM],Structure (SMILES)
1,0.01 to 1,"CCN(C)CCOc1ccc2c(c1)CN(C(=O)c1cc3c(CC4CCCCC4)n[nH]c3cc1O)C2 [Compound A38, (3-Cyclohexylmethyl-6-hydroxy-1H-indazol-5-yl)-{5-[2-(ethylmethylamino)ethoxy]-1,3-dihydroisoindol-2-yl}methanone]"
2,0.01 to 1,"O=C(c1cc2c(CC3CCCCC3)n[nH]c2cc1O)N1Cc2ccc(OCCN3CCOCC3)cc2C1 [Compound A47, (3-Cyclohexylmethyl-6-hydroxy-1H-indazol-5-yl)-[5-(2-morpholin-4-ylethoxy)-1,3-dihydroisoindol-2-yl]methanone]"
3,0.01 to 1,"O=C(c1cc2c(Cc3cccc(Cl)c3)n[nH]c2cc1O)N1CC[C@@H](O)C1 [Compound A7, 5-((R)-3-Hydroxypyrrolidin-1-ylcarbonyl)-3-(3-chlorobenzyl)-6-hydroxy-1H-indazole]"
4,0.01 to 1,"CN(C)CCOc1ccc2c(c1)CN(C(=O)c1cc3c(CC4CCCC4)n[nH]c3cc1O)C2 [Compound A28, (3-cyclopentylmethyl-6-hydroxy-1H-indazol-5-yl)-[5-(2-dimethylaminoethoxy)-1,3-dihydroisoindol-2-yl]methanone]"
5,0.01 to 1,CN(C)CCCOc1ccc2c(c1)CN(C(=O)c1cc3c(CC4CCCC4)n[nH]c3cc1O)C2 [Compound A34]
6,0.01 to 1,"CC(C)CCc1n[nH]c2cc(O)c(C(=O)N3Cc4ccc(OCCN(C)C)cc4C3)cc12 [Compound A27, [5-(2-dimethylaminoethoxy)-1,3-dihydroisoindol-2-yl]-[6-hydroxy-3-(3-methylbutyl)-1H-indazol-5-yl]methanone]"
7,0.01 to 1,"CCCc1n[nH]c2cc(O)c(C(=O)N3Cc4ccc(Br)cc4C3)cc12 [Compound A15, 5-(5-Bromo-1,3-dihydroisoindol-2-ylcarbonyl)-3-propyl-6-hydroxy-1H-indazole]"
8,0.01 to 1,CCCc1n[nH]c2cc(O)c(C(=O)N3Cc4ccc(N5CCOCC5)cc4C3)cc12 [Compound A19]
9,0.01 to 1,"N#CCCCOc1ccc2c(c1)CN(C(=O)c1cc3c(CC4CCCC4)n[nH]c3cc1O)C2 [Compound A43, 4-[2-(3-Cyclopentylmethyl-6-hydroxy-1H-indazole-5-carbonyl)-2,3-dihydro-1H-isoindol-5-yloxy]butyronitrile]"
10,0.01 to 1,"Cc1cccc(Cc2n[nH]c3cc(O)c(C(=O)N4Cc5ccccc5C4)cc23)c1 [Compound A1, 5-(1,3-dihydroisoindol-2-ylcarbonyl)-3-(3-methylbenzyl)-6-hydroxy-1H-indazole]"
11,0.01 to 1,"O=C(c1cc2c(CC3CCCCC3)n[nH]c2cc1O)N1Cc2ccc(OCCN3CCCCC3)cc2C1 [Compound A41, (3-Cyclohexylmethyl-6-hydroxy-1H-indazol-5-yl)-[5-(2-piperidin-1-ylethoxy)-1,3-dihydroisoindol-2-yl]methanone]"
12,0.01 to 1,"CN(C)CCOc1ccc2c(c1)CN(C(=O)c1cc3c(CC4CCCCC4)n[nH]c3cc1O)C2 [Compound A29, (3-cyclohexylmethyl-6-hydroxy-1H-indazol-5-yl)-[5-(2-dimethylaminoethoxy)-1,3-dihydroisoindol-2-yl]methanone]"
13,0.01 to 1,Cc1cccc(Cc2n[nH]c3cc(O)c(C(=O)N4CCN(C)CC4)cc23)c1 [Compound A17]
14,0.01 to 1,"CN1CCC(Oc2ccc3c(c2)CN(C(=O)c2cc4c(CC5CCCCC5)n[nH]c4cc2O)C3)CC1 [Compound A32, (3-Cyclohexylmethyl-6-hydroxy-1H-indazol-5-yl)-[5-(1-methylpiperidin-4-yloxy)-1,3-dihydroisoindol-2-yl]methanone]"
